According to US20220306603A1, “TARGETING DNA REPAIR IN TUMOR CELLS VIA INHIBITION OF ERCC1-XPF” (The Governors of the University of Alberta, priority 2019, published 2022):
Entries after “also recorded” stand apart in the source; their conditions may differ.

Legend:
HCT116 cells [1] = test: Clonogenic survival assay, UV treatment; type: cell-based, human; settings: 254 nm UV 0-10 J/m^2; compound 0.5-4 μM
Method: UV treatment: HCT116 cells (100-800 cells depending on the UV dose) were plated in triplicate in 60-mm petri dishes. The cells were incubated overnight at 37° C. in a humidified atmosphere containing 5% CO2 to allow for cell attachment. […] Medium was removed again, and cells were exposed to increasing doses (0-10 J/m^2) of UV-C radiation and then incubated for a further 10 days in the presence of inhibitor at 37° C. in a 5% CO2 atmosphere to allow for colony formation. After this period plates were stained with crystal violet and colonies were counted using a Colcount instrument (Oxford Optronix, Abingdon UK). Finally, plating efficiency and surviving fraction were calculated.

[2] = ADME screening: solubility; type: physicochemical; settings: Table 8
HCT116 cells [3] = test: Cellular repair of UV-induced cyclobutane pyrimidine dimers (immunofluorescence); type: cell-based, human; settings: 8 J/m^2 UV-C, up to 24 h post-irradiation
Method: Protocol of Mirzayans et al. was followed with minor modifications (30). Approximately 1×10^5 HCT116 cells were seeded on each coverslip and allowed to attach overnight. Medium was then removed and cells were treated for one hour with the desired compound. The medium was removed, and cells were exposed to 8 J/m^2 UV-C radiation (G15T8 254 nm lamp, Ushio America Inc, Cypress, Calif.) followed by adding fresh medium containing the compound. Plates were incubated at 37° C. for different periods of time up to 24 hours and fixed in 50:50 methanol/1× phosphate-buffered saline (PBS) solution, followed by replacing the methanol/PBS solution with 100% methanol and incubation in −20° C. After 20 minutes, methanol was removed, and cells were treated with PBS for 5 minutes in room temperature. After fixing, cells were permeabilized in 0.5% Triton/PBS and washed with PBS, denatured in 2 N HCl, and neutralized by twice washing with 0.1 M borate buffer pH 8.5. Cells on cover slips were washed once with PBS followed by blocking with 5% non-fat dry milk/PBS for 30 minutes. Mouse anti-thymine dimer monoclonal antibody (Cat. No. MC-062, Kamiya Biomedical Company, Seattle, Wash.) was applied to the cover slips for one hour in the dark and at room temperature. Cells were then washed with PBS containing 0.1% Tween-20 and incubated with rabbit anti-mouse IgG-Alexafluor antibody (Invitrogen, Carlsbad, Calif.) followed by two washes with PBS/(0.1%)Tween-20. Cells on coverslips were then washed with PBS, rinsed with water, and mounted on slides using DAPI glycerol mounting solution. Slides were kept at 4° C. before fluorescent microscopic evaluation and measurement of fluorescence intensity with MetaXpress Version: 6.2.1.704 software (Molecular Devices, Sunnyvale, Calif.).
To test for inhibition of nucleotide excision repair, we monitored the cellular removal of UVC-induced cyclobutane pyrimidine dimers (CPDs) in HCT116 cells over a 24-hour period using an immunochemical assay.

HCT116 cells [4] = test: Cytotoxicity profile: crystal violet viability assay (and colony forming assay); type: cell-based, human
Method: Crystal violet viability assays were carried out to assess the cellular toxicity of these compounds to HCT116 cells and to choose relatively non-cytotoxic concentrations to be further utilised in sensitizing cells to UV radiation or cyclophosphamide.
The beneficial effect is especially visible at a concentration of 5.0 μM. At higher concentrations, both compounds show an equal cytotoxic effect (FIG. 15).

ERCC1-XPF = target: T1, ERCC1-XPF (Homo sapiens, UniProt Q92889); test: Microplate fluorescence incision assay of ERCC1-XPF endonuclease activity; type: biochemical; settings: for inhibition of ERCC1-XPF endonuclease activity (in words): compounds 10 μM each; for IC50: full-length ERCC1-XPF, 30 minutes incubation, 5% DMSO, read-out: IC50 of ERCC1-XPF endonuclease activity
T1 construct: His6; made in house; host or cells: E. coli BL21 (DE3)
T1 sequence (Q92889 1-916): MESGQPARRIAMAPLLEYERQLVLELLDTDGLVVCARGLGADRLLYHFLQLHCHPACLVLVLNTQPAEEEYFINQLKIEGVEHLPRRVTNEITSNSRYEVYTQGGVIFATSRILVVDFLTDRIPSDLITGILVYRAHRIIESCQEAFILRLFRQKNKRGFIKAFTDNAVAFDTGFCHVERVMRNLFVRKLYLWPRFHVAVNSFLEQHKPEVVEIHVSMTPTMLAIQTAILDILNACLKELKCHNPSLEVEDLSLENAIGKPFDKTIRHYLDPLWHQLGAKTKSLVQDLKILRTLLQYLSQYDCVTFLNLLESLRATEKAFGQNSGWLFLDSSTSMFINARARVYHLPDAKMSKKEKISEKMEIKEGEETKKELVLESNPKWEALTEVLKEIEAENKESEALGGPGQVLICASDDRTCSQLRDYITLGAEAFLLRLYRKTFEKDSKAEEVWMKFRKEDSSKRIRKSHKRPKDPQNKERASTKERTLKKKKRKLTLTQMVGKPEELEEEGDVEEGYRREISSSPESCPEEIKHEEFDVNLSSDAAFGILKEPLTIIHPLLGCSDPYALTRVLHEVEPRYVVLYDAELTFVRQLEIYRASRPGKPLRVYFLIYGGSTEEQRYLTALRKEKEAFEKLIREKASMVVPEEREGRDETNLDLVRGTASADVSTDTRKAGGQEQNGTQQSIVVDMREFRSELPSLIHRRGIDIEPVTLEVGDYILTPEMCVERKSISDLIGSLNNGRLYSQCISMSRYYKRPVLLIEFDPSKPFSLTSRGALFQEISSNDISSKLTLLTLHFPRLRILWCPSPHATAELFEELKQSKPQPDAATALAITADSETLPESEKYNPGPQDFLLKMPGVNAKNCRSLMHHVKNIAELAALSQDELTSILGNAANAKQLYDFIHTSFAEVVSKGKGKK
Text: This assay has been previously described (29), and utilizes a stem-loop substrate (composed of a 10mer-duplex stem and a 20mer-oligodT single-strand loop), labelled on the 5′-terminus with 6-FAM and 3′ with the quencher dabcyl.
Human ERCC1-XPF wild-type protein was obtained as previously described (29). Basically, the recombinant protein was expressed from a bicistronic plasmid (provided by Dr. Richard Wood, University of Texas MD Anderson Cancer Center, Smithville, Tex.) in the E. coli BL21 (DE3) strain. Since both XPF and ERCC1 contained a polyhistidine (His-6) tag, the proteins extracted from E. coli were incubated with a ProBond Nickel-Chelating Resin (Thermo Fisher Scientific). Protein eluted from the Ni affinity column was subsequently loaded into a Hi-trap heparin column (GE Healthcare). Fractions recovered from the heparin column that contained ERCC1-XPF were dialyzed, concentrated and stored at −80° C. in 10 mM HEPES pH 7.4, 2.5 mM p-mercaptoethanol, 0.01% CHAPS, 0.25 mM EDTA, 50% glycerol and 25 mM NaCl.
A previously described protocol (2,29) was followed.

ERCC1-XPF complex = target: T2, ERCC1-XPF complex (Homo sapiens, UniProt Q92889); test: Steady-state intrinsic tryptophan fluorescence quenching binding assay; settings: Table 7; read-out: Kd protein
T2 construct: His6; made in house; host or cells: E. coli BL21 (DE3)
T2 sequence (Q92889 1-916): T1 sequence (Q92889 1-916)
Method: Steady-state fluorescence spectra were measured at room temperature on a Perkin-Elmer LS-55 spectrofluorometer (Freemont, Calif.) with 5 nm spectral resolution for excitation and emission using 30-80 nM solution of purified recombinant ERCC1-XPF protein complex. […] In studying the effects of inhibitors on protein fluorescence intensities, additions to protein samples were made from inhibitors stock solutions, keeping the protein dilution below 3%.

[5] = ADME screening: cell permeability and efflux ratio; settings: for Cell permeability (Mean recovery %) (in words): Table 8
[6] = Microsomal stability in vitro (human liver microsomes); settings: for Microsomal stability in vitro CLint (in words): Table 8
HCT116 cells [7] = test: Clonogenic survival assay, cyclophosphamide treatment; type: cell-based, human; settings: cyclophosphamide 0-300 μM; compound 1-4 μM
Method: Plates were incubated for another 8 days at 37° C. in a 5% CO2 atmosphere for colony formation. After this period plates were stained with crystal violet, colonies were counted, and plating efficiency and surviving fraction were calculated.

DNA = test: Binding constant to DNA; settings: Table 7
ADME screening: LogD = settings: for logD: pH 7.4
[8] = test system: five CYP450 tested enzymes
[9] = Hepatocyte stability in vitro; type: in vitro ADME; settings: Table 8
serum proteins = test: ADME screening: serum protein binding; type: in vitro ADME; settings: Table 8

| SMILES | sensitisation to UV radiation, clonogenic survival (in words) (HCT116 cells [1]) | Solubility (in words) [2] | inhibition of cellular removal of CPDs / thymidine dimers (in words) (HCT116 cells [3]) | inhibition of ERCC1-XPF endonuclease activity (in words) (ERCC1-XPF) | IC50 (ERCC1-XPF) [nM] | Cell permeability (Mean recovery %) (in words) [5] | Microsomal stability in vitro CLint (in words) [6] | sensitisation to cyclophosphamide, clonogenic survival (in words) (HCT116 cells [7]) | LogD (rating) (ADME screening: LogD; Table 8) | logD (ADME screening: LogD) | further results |
| --- | --- | --- | --- | --- | --- | --- | --- | --- | --- | --- | --- |
| CN(C)CCN1CCN(Cc2cc(Nc3c4ccc(Cl)cc4nc4ccc(O)cc34)ccc2O)CC1 [Gen B9] | significantly reduced the survival | Unstable | significantly inhibited the removal of CPDs | marked capacity to inhibit | 490 | Low | Moderate | significantly sensitised the HCT116 cells to cyclophosphamide | Good | 2.01 | inhibition of cellular removal of CPDs / thymidine dimers (in words) (HCT116 cells [3]; listed as B9): significantly different; cells survived (HCT116 cells [4]; 5 μM, 3 days exposure, crystal violet): approximately 95%; Kd (ERCC1-XPF complex): 85 ± 5 nM; efflux ratio ([5]; not told): > 2; metabolism on exposure to human liver microsomes (in words) [6]: moderate metabolism; Kd (DNA): 1050 ± 50 nM |
| COc1ccc2nc3cc(Cl)ccc3c(Nc3ccc(O)c(CN4CCN(CCN(C(C)C)C(C)C)CC4)c3)c2c1 [Gen C-1, 4-((6-Chloro-2-methoxyacridin-9-yl)amino)-2-((4-(2-(diisopropylamino)ethyl)piperazin-1-yl)methyl)-phenol] | significant sensitisation effect | Good | significant inhibition of removal of CPDs | higher inhibitory effect | 167 | Low | Low clearance | significantly sensitised the HCT116 cells to cyclophosphamide; also recorded: significantly sensitized the cells to cyclophosphamide | Good | 3.95 | cytotoxicity (in words) (HCT116 cells [4]; crystal violet staining, for Gen C1 also colony forming assay): lower cytotoxicity; CVP inhibition (5 enzyme) (rating) [8]: Good; Hepatocyte stability in vitro CLint (in words) [9]: (medium clearance); Serum protein binding (% bound) (serum proteins): (99.5) % bound; Serum protein binding (in words) (serum proteins): Strong binding; LogD (remark in the LogD row) (ADME screening: LogD; Table 8): (partially soluble) |
